Results as given in PubChem BioAssay AID330 (DTP/NCI, 2004).
Where “and” joins values, the source holds several entries; their conditions need not be identical. Equal values may be shown once. Toxic doses and inconclusive results are not listed. How the source made its calls: active means survival T/C of 150% or more; inactive means T/C below 125% in these data.

Test system: P388 leukemia ip, CD2F1 mice, survival T/C
Experiment: NCI In Vivo Anticancer Drug Screen. Data for tumor model P388 Leukemia (intraperitoneal) in CD2F1 (CDF1) mice
Conditions: endpoint: median survival time, higher = longer survival
Summary of the method: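 Mice carrying the transplanted tumor received test compound or vehicle. Survival was recorded in each group, and the value is the treated-group measurement divided by that of the vehicle-treated control group.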

Measured: T/C

COC(=O)[C@@]12OC[C@]34[C@H]([C@@H](O)[C@@H]1O)[C@@]1(C)CC(=O)C(OC(=O)CC(=O)OC5=C(C)[C@@H]6C[C@H]7OC(=O)[C@H](OC(=O)C=C(C)C)[C@H]8[C@]9(C(=O)OC)OC[C@]78[C@H]([C@@H](O)[C@@H]9O)[C@@]6(C)CC5=O)=C(C)[C@@H]1C[C@H]3OC(=O)[C@H](OC(=O)C=C(C)C)[C@@H]24
inactive: dose: 0.3 mg/kg/injection, schedule: Q01DX009 (ip), vehicle: saline with Tween-80 106 % of control | dose: 0.6 mg/kg/injection, schedule: Q01DX009 (ip), vehicle: saline with Tween-80 107 % of control | dose: 0.9 mg/kg/injection, schedule: Q01DX009 (ip), vehicle: saline with Tween-80 113 % of control

CC1OC(OC2C(O[C@H]3CC[C@@]4(C)C(=CC[C@H]5[C@@H]6C[C@@H]7O[C@]8(CC[C@H](C)CN8)[C@@H](C)[C@@H]7[C@@]6(C)CC[C@@H]54)C3)OC(CO)C(O)C2OC2OC(CO)C(O)C(O)C2O)C(O)C(O)C1O (stereo partly drawn)
inactive: dose: 6.25 mg/kg/injection, schedule: Q01DX009 (ip), vehicle: saline with Tween-80 90 % of control | dose: 12.5 mg/kg/injection, schedule: Q01DX009 (ip), vehicle: saline with Tween-80 86 % of control | dose: 25.0 mg/kg/injection, schedule: Q01DX009 (ip), vehicle: saline with Tween-80 90 % of control

COC(=O)C1=C(C(=O)OC)C2OC1C(COC(=O)NC1CCCCC1)=C2COC(=O)NC1CCCCC1
inactive: dose: 12.5 mg/kg/injection, schedule: Q01DX009 (ip), vehicle: distilled water + Tween-80 89 % of control | dose: 25.0 mg/kg/injection, schedule: Q01DX009 (ip), vehicle: distilled water + Tween-80 87 % of control | dose: 50.0 mg/kg/injection, schedule: Q01DX009 (ip), vehicle: distilled water + Tween-80 89 % of control | dose: 100.0 mg/kg/injection, schedule: Q01DX009 (ip), vehicle: distilled water + Tween-80 87 % of control | dose: 200.0 mg/kg/injection, schedule: Q01DX009 (ip), vehicle: distilled water + Tween-80 101 % of control

COCCOCCN1CCN(CCCN2c3ccccc3Sc3ccc(C(F)(F)F)cc32)CC1
inactive: dose: 1.56 mg/kg/injection, schedule: Q04DX003 (ip), vehicle: saline 95 % of control | dose: 3.0 mg/kg/injection, schedule: Q04DX003 (ip), vehicle: saline 104 % of control and 97 % of control | dose: 3.12 mg/kg/injection, schedule: Q04DX003 (ip), vehicle: saline 95 % of control | dose: 6.0 mg/kg/injection, schedule: Q04DX003 (ip), vehicle: saline 108 % of control | dose: 6.25 mg/kg/injection, schedule: Q04DX003 (ip), vehicle: saline 96 % of control | dose: 12.0 mg/kg/injection, schedule: Q04DX003 (ip), vehicle: saline 104 % of control and 122 % of control | dose: 12.5 mg/kg/injection, schedule: Q04DX003 (ip), vehicle: saline 120 % of control | dose: 50.0 mg/kg/injection, schedule: Q04DX003 (ip), vehicle: saline 124 % of control

Nc1cccc2c1C(O)c1ccccc1-2 (stereo not drawn)
inactive: dose: 50.0 mg/kg/injection, schedule: Q01DX005 (ip), vehicle: saline with Tween-80 95 % of control | dose: 100.0 mg/kg/injection, schedule: Q01DX005 (ip), vehicle: saline with Tween-80 99 % of control | dose: 200.0 mg/kg/injection, schedule: Q01DX005 (ip), vehicle: saline with Tween-80 90 % of control

CC(C(=O)O)c1cccc2c(=O)cc(-c3ccccc3)oc12 (stereo not drawn)
inactive: dose: 50.0 mg/kg/injection, schedule: Q01DX005 (ip), vehicle: Klucel (hydroxypropylcellulose) (HPC) 100 % of control | dose: 100.0 mg/kg/injection, schedule: Q01DX005 (ip), vehicle: Klucel (hydroxypropylcellulose) (HPC) 87 % of control | dose: 200.0 mg/kg/injection, schedule: Q01DX005 (ip), vehicle: Klucel (hydroxypropylcellulose) (HPC) 109 % of control

Cc1nc(O)c(-c2ccc(Cl)cc2)s1
inactive: dose: 50.0 mg/kg/injection, schedule: Q01DX009 (ip), vehicle: saline with Tween-80 102 % of control | dose: 100.0 mg/kg/injection, schedule: Q01DX009 (ip), vehicle: saline with Tween-80 103 % of control | dose: 200.0 mg/kg/injection, schedule: Q01DX009 (ip), vehicle: saline with Tween-80 101 % of control

CC1CC(C)OC(C(C)(C)C)O1 (stereo not drawn)
inactive: dose: 60.0 mg/kg/injection, schedule: Q01DX005 (ip), vehicle: saline 107 % of control | dose: 120.0 mg/kg/injection, schedule: Q01DX005 (ip), vehicle: saline 109 % of control | dose: 240.0 mg/kg/injection, schedule: Q01DX005 (ip), vehicle: saline 107 % of control

O=C(CNC(=O)c1ccccc1)N/N=C/c1ccccc1O
inactive: dose: 60.0 mg/kg/injection, schedule: Q01DX005 (ip), vehicle: saline with Tween-80 100 % of control | dose: 120.0 mg/kg/injection, schedule: Q01DX005 (ip), vehicle: saline with Tween-80 101 % of control | dose: 240.0 mg/kg/injection, schedule: Q01DX005 (ip), vehicle: saline with Tween-80 100 % of control

c1cc2ccc3ccc4ccc5ccc6ccc1c1c2c3c4c5c61
inactive: dose: 12.5 mg/kg/injection, schedule: Q01DX001 (ip), vehicle: Klucel (hydroxypropylcellulose) (HPC) 100 % of control | dose: 25.0 mg/kg/injection, schedule: Q01DX001 (ip), vehicle: Klucel (hydroxypropylcellulose) (HPC) 104 % of control | dose: 50.0 mg/kg/injection, schedule: Q01DX001 (ip), vehicle: Klucel (hydroxypropylcellulose) (HPC) 96 % of control | dose: 100.0 mg/kg/injection, schedule: Q01DX001 (ip), vehicle: Klucel (hydroxypropylcellulose) (HPC) 96 % of control
